# Reference: PubChem BioAssay (NCI)
# Values joined by “and” are separate entries in the source; they are usually repeats but may differ in a detail not shown here. Equal entries are not always repeated.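 Test compounds were applied to cells in 96-well plates for 48 hours at 5 doses. GI50 marks 50% less growth. TGI marks complete inhibition of growth.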
# What was measured:
# Assay in all cases: NCI tumour cell line growth inhibition, 48 h
# A498 renal = tested on: A498 renal
# HCT-116 colon = tested on: HCT-116 colon
# HOP-62 NSCLC = tested on: HOP-62 NSCLC
# K-562 leukemia = tested on: K-562 leukemia
# MALME-3M melanoma = tested on: MALME-3M melanoma
# MDA-MB-231 breast = tested on: MDA-MB-231 breast
# NCI-H460 lung = tested on: NCI-H460 lung
# PC-3 prostate = tested on: PC-3 prostate
# TK-10 renal = tested on: TK-10 renal
# UO-31 renal = tested on: UO-31 renal
Compound,GI50 (A498 renal),TGI (A498 renal),GI50 (HCT-116 colon),TGI (HCT-116 colon),GI50 (HOP-62 NSCLC),TGI (HOP-62 NSCLC),GI50 (K-562 leukemia),TGI (K-562 leukemia),GI50 (MALME-3M melanoma),TGI (MALME-3M melanoma),GI50 (MDA-MB-231 breast),TGI (MDA-MB-231 breast),GI50 (NCI-H460 lung),TGI (NCI-H460 lung),GI50 (PC-3 prostate),TGI (PC-3 prostate),GI50 (TK-10 renal),TGI (TK-10 renal),GI50 (UO-31 renal),TGI (UO-31 renal)
O=C(C(=O)c1cccnc1)c1cccnc1,> 100 µM,> 100 µM,> 100 µM,> 100 µM,> 100 µM,> 100 µM,> 100 µM,> 100 µM,> 100 µM,> 100 µM,> 100 µM,> 100 µM,> 100 µM,> 100 µM,> 100 µM,> 100 µM,> 100 µM,> 100 µM,> 100 µM,> 100 µM
CCc1c2c(nc3ccc(OC(=O)OCc4ccc(B5OC(C)(C)C(C)(C)O5)cc4)cc13)-c1cc3c(c(=O)n1C2)COC(=O)[C@]3(O)CC,0.011 µM,0.0725 µM,< 0.0111 µM,> 100 µM,< 0.01 µM,3.27 µM,0.0368 µM,> 100 µM,0.0279 µM,0.637 µM,0.892 µM,43.7 µM,< 0.01 µM,0.182 µM,0.0514 µM,> 100 µM,0.88 µM,> 100 µM,0.0189 µM,0.339 µM
CN(CO)c1nc(N(C)CO)nc(N(C)CO)n1,,60.7 µM and 54 µM,21.7 µM and 11.7 µM,53.2 µM and 47.3 µM,42.6 µM,> 90.7 µM and 56.7 µM,27.2 µM,140 µM,17.5 µM,34.2 µM and 26.1 µM,18.3 µM,42.9 µM and 46.9 µM,17.2 µM and 13.9 µM,43.6 µM and 42.8 µM,,45.6 µM and 51.3 µM,,82.9 µM and 77.4 µM,27.6 µM,50.3 µM and 56.2 µM
CCCCCCCCCCCCSC1=CC(=O)C=CC1=O,7.96 µM,24.3 µM,6.31 µM,> 43.3 µM,9.23 µM,> 35 µM,6.44 µM,> 36.9 µM,13.1 µM,> 50 µM,5.36 µM,17.1 µM,13.9 µM,> 50 µM,0.672 µM,4.21 µM,16.3 µM,37.4 µM,0.578 µM,2.54 µM
CC[C@H](C)C(=O)O[C@H]1CCC=C2C=C[C@H](C)[C@H](CC[C@@H]3C[C@@H](O)CC(=O)O3)[C@H]21,0.183 µM,1.36 µM,2.84 µM,> 59 µM,12.4 µM,> 100 µM,22 µM,> 100 µM,,> 100 µM,0.352 µM,2.54 µM,8.59 µM,> 100 µM,1.7 µM,> 100 µM,22.5 µM,> 100 µM,5.29 µM,> 100 µM
CCCn1cc(/C=N\N=C2\C(=O)Nc3ccc(C)cc32)c2ccccc21,1.37 µM,7.5 µM,1.75 µM,4.17 µM,4.17 µM,25 µM,2.22 µM,20.5 µM,1.88 µM,6.03 µM,1.81 µM,7.4 µM,2.17 µM,10.6 µM,1.83 µM,5.17 µM,11.1 µM,> 100 µM,2.28 µM,61.8 µM
COc1ccc(C(=O)/C=C/c2c(C(F)(F)F)nc3ccccn23)cc1OC,3.46 µM,21.7 µM,0.561 µM,4.26 µM,3.38 µM,> 28.4 µM,0.377 µM,> 100 µM,13.8 µM,> 100 µM,3.06 µM,8.55 µM,0.933 µM,2.99 µM,2.73 µM,> 100 µM,2.07 µM,> 20.6 µM,1.62 µM,29.5 µM
O=[N+]([O-])c1cc(C(F)(F)F)cc2n[se]nc12,,31.5 µM,,3.46 µM,,29.8 µM,,5.14 µM,,3.57 µM,,5.84 µM,,26.6 µM,,8.32 µM,,8.47 µM,,14.1 µM
N#Cc1ccc(O)c(C2=NCC(c3ccc(-c4ccccc4)cc3)O2)c1 (stereo unspecified),0.402 µM,18.5 µM,0.462 µM,15.2 µM,0.41 µM,10.9 µM,0.338 µM,> 100 µM,1.71 µM,14.3 µM,0.823 µM,18.5 µM,0.279 µM,8.75 µM,0.471 µM,22.8 µM,,,0.406 µM,4.13 µM
CCCCNP1(NCCCC)=NP(NCCCC)(NCCCC)=NP(NCCCC)(NCCCC)=NP(NCCCC)(NCCCC)=N1,1.93 µM,8.01 µM,0.209 µM,0.81 µM,1.85 µM,6.25 µM,0.103 µM,3.83 µM,0.232 µM,2.6 µM,0.418 µM,4.08 µM,0.594 µM,4.25 µM,0.24 µM,12.4 µM,0.933 µM,13 µM,2.81 µM,14.4 µM
CC(C)c1ccc(C(c2c(O)c3ccccc3oc2=O)c2c(O)c3ccccc3oc2=O)cc1,,35.4 µM,,33.2 µM,,50.5 µM,,51.4 µM,,38.4 µM,,45.6 µM,,37.6 µM,,37.9 µM,,68 µM,,28.4 µM
CN(C)C[C@@H]1CCn2cc(c3ccccc32)C2=C(C(=O)NC2=O)c2cn(c3ccccc23)CCO1,1.13 µM,4.54 µM,0.374 µM,1.56 µM,2.54 µM,> 10 µM,0.916 µM,3.37 µM,1.17 µM,5.01 µM,1.68 µM,9.49 µM,1.48 µM,5.73 µM,1.77 µM,> 10 µM,2.22 µM,> 10 µM,0.539 µM,3.23 µM
CN1CCN(C(=O)[C@@]2(C)CC[C@]3(C)CC[C@]4(C)C(=CC[C@@H]5[C@@]6(C)CC[C@H](OC(=O)c7cccnc7)C(C)(C)[C@@H]6CC[C@]54C)[C@@H]3C2)CC1,4.38 µM,18.4 µM,1.48 µM,2.87 µM,,,2.15 µM,6.36 µM,1.78 µM,3.54 µM,2.03 µM,3.95 µM,1.78 µM,3.33 µM,1.61 µM,3.54 µM,1.79 µM,3.31 µM,1.43 µM,2.86 µM
COc1cc(C(=O)c2cnc(-c3ccc4cc[nH]c4c3)[nH]2)cc(OC)c1OC,0.0136 µM,0.0788 µM,0.0332 µM,2.23 µM,0.0354 µM,6.5 µM,0.0173 µM,8.74 µM,1.61 µM,9.89 µM,0.0609 µM,1.44 µM,0.0376 µM,11.5 µM,0.0286 µM,15.1 µM,0.34 µM,12.4 µM,0.153 µM,5.11 µM
C=C1C(=O)O[C@H]2C3OC3(C)CC/C=C(/C(=O)OC)[C@@H](OC(C)=O)[C@H](OC(=O)C3(C)OC3C)[C@H]12 (stereo partly specified),1.69 µM and 2.85 µg/mL,4.26 µM and 5.4 µg/mL,1.17 µM and 668 nM and 0.444 µg/mL,2.39 µM and 1.67 µM and 1.19 µg/mL,11.9 µM and 5.74 µg/mL,24.3 µM and 18.1 µg/mL,416 nM and 0.359 µg/mL,1.15 µM and 2.25 µM and 1.15 µg/mL,1.25 µM and 0.257 µM,4.35 µM and 0.941 µM,1.23 µM,5.9 µM and 4.71 µM,3.13 µM and 3.6 µg/mL,11.1 µM and 9.89 µg/mL,2.99 µM,5.16 µM and 11.7 µM,1.63 µM and 3.42 µM and 0.719 µg/mL,3.24 µM and 9.88 µM and 2.43 µg/mL,2.29 µM and 2.04 µM and 2.66 µg/mL,6.69 µM and 9.13 µM and 5.8 µg/mL
COC(=O)c1cc2c([nH]c3ccccc32)c(-c2nc3ccccc3cc2CO)n1,30.4 µM,> 100 µM,7.93 µM,> 100 µM,,,> 100 µM,> 100 µM,> 100 µM,> 100 µM,40 µM,> 100 µM,> 100 µM,> 100 µM,> 100 µM,> 100 µM,> 100 µM,> 100 µM,> 100 µM,> 100 µM
COc1ccc2[nH]cc(C3(c4c[nH]c5ccc(OC)cc45)C(=O)Nc4ccc(Cl)cc43)c2c1,4.94 µM,18.7 µM,3.63 µM,10.7 µM,5.18 µM,21.3 µM,3.69 µM,> 100 µM,5.02 µM,46.5 µM,2.08 µM,5.43 µM,3.18 µM,10.1 µM,3.96 µM,38.4 µM,,,2.27 µM,> 100 µM
CN(C)c1ccc2cc3c(cc2c1)Oc1ccccc1N3.[Cl][Zn][Cl],16.9 µM,34.7 µM,2.04 µM,4.34 µM,,,3.05 µM,> 100 µM,3.04 µM,9.6 µM,1.83 µM,4.51 µM,20.1 µM,52.2 µM,3.54 µM,14.1 µM,6.2 µM,16.5 µM,1.44 µM,3.3 µM
